Here are results for 36 molecules from patent publication US20160122312A1, “ANTI-VIRAL COMPOUNDS, PHARMACEUTICAL COMPOSITIONS AND METHODS OF USE THEREOF” (KINETA, INC., priority 2013, published 2016).

Structures are written as SMILES.

The test system of one experiment is hCMV AD169 strain. Description: hCMV focus-forming assay in human foreskin fibroblasts. The class given is cell-based, human cytomegalovirus. The settings on record: FIGS. 5A, 5B.
Experiment [1] concerns influenza virus A/Udorn/72 H3N2 strain. Description: influenza focus-forming assay in 293 cells. The class given is cell-based. To be noted: for antiviral activity compared with KIN101 (viral titer): FIG. 3A; for IC50: HEK293, 24 h, read-out: Flu IC50; for viral infection of 293 cells (decrease in foci, dose dependence): FIGS. 3A, 3B.
The next experiment deals with DNV type 2 strain. Nature of the experiment: DNV focus-forming assay in Huh7 cells. It is filed as cell-based, Dengue virus. The settings on record: for IC50: Dengue virus, Huh-7, Huh7 cells, treatment after infection, 48 hours replication; for viral infection of Huh7 cells (decrease in foci, dose dependence): FIG. 4B.

As to `CS(=O)(=O)Oc1ccc2c(=O)c(-c3ccc(OC(F)(F)F)cc3)coc2c1` [KIN134], the “hCMV as measured by foci (FFU/mL), dose dependence” value (shortened to “hCMV as measured by foci (FFU/mL)”) in the experiment with hCMV AD169 strain is reported as “dose-dependent decreases in hCMV”. In addition, in experiment [1], the “antiviral activity compared with KIN101 (viral titer)” value is “improved on this antiviral activity” and the half-inhibitory concentration (IC50) (as a rule, the point on the concentration scale where inhibition reaches its midpoint) was 450 nM. In the experiment on DNV type 2 strain, it took 3970 nM to reach half-maximal inhibition (IC50) and the “viral infection of Huh7 cells (decrease in foci, dose dependence)” value was “dose-dependent decreases in viral infection”.

On to `O=C(COc1ccc2c(=O)c(-c3ccc(Br)cc3)coc2c1)N1CCOCC1` [KIN238], for which the IC50 in experiment [1] stood at 1200 nM; in the experiment with DNV type 2 strain it was 1180 nM.

For the molecule `CS(=O)(=O)Oc1ccc2c(=O)c(-c3ccc(C(F)(F)F)cc3)coc2c1` [KIN263], in experiment [1], the “antiviral activity compared with KIN101 (viral titer)” value is given as “improved on this antiviral activity” and the half-inhibitory concentration (IC50) was determined as 800 nM. This molecule displayed an IC50 with DNV type 2 strain of 1390 nM.

For `CS(=O)(=O)Oc1ccc2c(=O)c(-c3cccc4ccccc34)coc2c1` [KIN267], the “antiviral activity compared with KIN101 (viral titer)” value in experiment [1] was “improved on this antiviral activity”.

In the case of `CC(C)(C)c1ccc(-c2coc3cc(OS(C)(=O)=O)ccc3c2=O)cc1` [KIN269], the figures for the IC50 (in experiment [1]; in the experiment on DNV type 2 strain) were 145 nM and 542 nM, respectively.

Turning to `CS(=O)(=O)Oc1ccc2c(=O)c(C3CCCC3)coc2c1` [KIN282], in experiment [1], the “antiviral activity compared with KIN101 (viral titer)” value is “improved on this antiviral activity”.

As for `O=C(COc1ccc2c(=O)c(-c3ccc(OC(F)(F)F)cc3)coc2c1)N1CCOCC1` [KIN290], the IC50 in experiment [1] was 1530 nM; with DNV type 2 strain, 3100 nM.

As for `CN(c1ccc(-c2coc3cc(OS(C)(=O)=O)ccc3c2=O)cc1)S(C)(=O)=O` [KIN291], the “antiviral activity compared with KIN101 (viral titer)” value in experiment [1] is “improved on this antiviral activity”.

In the case of `O=c1c(-c2ccc(OC(F)(F)F)cc2)coc2cc(OC(F)F)ccc12` [KIN299], in experiment [1], the “viral infection of 293 cells (decrease in foci, dose dependence)” value was “dose-dependent decreases in viral infection” and the IC50 turned out to be 709 nM. In addition, the IC50 in the experiment with DNV type 2 strain was greater than 5000 nM.

On to `CC(C)(C)c1ccc(-c2coc3cc(OCC(=O)N4CCOCC4)ccc3c2=O)cc1` [KIN306], for which, in experiment [1], the “antiviral activity compared with KIN101 (viral titer)” value is “improved on this antiviral activity” and the IC50 amounted to 880 nM. The molecule also yielded an IC50 with DNV type 2 strain of 2810 nM.

In the case of `CS(=O)(=O)Oc1ccc2c(=O)c(-c3ccc(NS(=O)(=O)N4CCCCC4)cc3)coc2c1` [KIN308], the “antiviral activity compared with KIN101 (viral titer)” value in experiment [1] was “improved on this antiviral activity”. Besides, the IC50 in experiment [1] was 108 nM; in the experiment with DNV type 2 strain, 4160 nM.

As to `C#CCOc1ccc2c(=O)c(-c3ccc(C(C)(C)C)cc3)coc2c1` [KIN328], the “hCMV as measured by foci (FFU/mL)” value in the experiment on hCMV AD169 strain is “dose-dependent decreases in hCMV”. In addition, in experiment [1], the “viral infection of 293 cells (decrease in foci, dose dependence)” value is reported as “dose-dependent decreases in viral infection” and the IC50 was 286 nM. Also, in the experiment on DNV type 2 strain, the IC50 turned out to be 1340 nM and the “viral infection of Huh7 cells (decrease in foci, dose dependence)” value was “dose-dependent decreases in viral infection”.

Regarding `CS(=O)(=O)Oc1ccc2c(=O)c(-c3ccc(OCC4CC4)cc3)coc2c1` [KIN371], the “viral infection of 293 cells (decrease in foci, dose dependence)” value in experiment [1] is “dose-dependent decreases in viral infection”. Also, the results for the IC50 (in experiment [1]; in the experiment with DNV type 2 strain) were 156 nM and greater than 5000 nM, respectively.

For the molecule `CC(C)(C)COc1ccc(-c2coc3cc(OS(C)(=O)=O)ccc3c2=O)cc1` [KIN372], in the experiment on hCMV AD169 strain, the “hCMV as measured by foci (FFU/mL)” value is given as “dose-dependent decreases in hCMV”. In experiment [1], the “viral infection of 293 cells (decrease in foci, dose dependence)” value is reported as “dose-dependent decreases in viral infection” and the IC50 was 37 nM. Besides, in the experiment with DNV type 2 strain, the IC50 worked out at 1690 nM and the “viral infection of Huh7 cells (decrease in foci, dose dependence)” value is given as “dose-dependent decreases in viral infection”.

Consider `CS(=O)(=O)Oc1ccc2c(=O)c(-c3ccc(OCC(F)(F)F)cc3)coc2c1` [KIN376], for which the “hCMV as measured by foci (FFU/mL)” value in the experiment with hCMV AD169 strain is “dose-dependent decreases in hCMV”. Besides, in experiment [1], the “viral infection of 293 cells (decrease in foci, dose dependence)” value was “dose-dependent decreases in viral infection” and the IC50 is 103 nM. In the experiment with DNV type 2 strain, the midpoint of inhibition, the IC50, lay at 5000 nM and the “viral infection of Huh7 cells (decrease in foci, dose dependence)” value is “dose-dependent decreases in viral infection”.

Consider `CS(=O)(=O)Oc1ccc2c(=O)c(-c3ccc(OC(F)F)cc3)coc2c1` [KIN378], for which the figures for the IC50 (in experiment [1]; in the experiment with DNV type 2 strain) were 600 nM and greater than 5000 nM, respectively.

`CN(c1ccc2c(=O)c(-c3ccc(C(C)(C)C)cc3)coc2c1)S(C)(=O)=O` [KIN385]: in the experiment on hCMV AD169 strain, the “hCMV as measured by foci (FFU/mL)” value is “dose-dependent decreases in hCMV”. Moreover, in experiment [1], the “viral infection of 293 cells (decrease in foci, dose dependence)” value was “dose-dependent decreases in viral infection” and the IC50 was found to be 9 nM. For the same molecule, in the experiment with DNV type 2 strain, the IC50 is 293 nM and the “viral infection of Huh7 cells (decrease in foci, dose dependence)” value is recorded as “dose-dependent decreases in viral infection”.

As for `CS(=O)(=O)Oc1ccc2c(=O)c(-c3ccc(OCC4CCOCC4)cc3)coc2c1` [KIN389], the values for the IC50 (in experiment [1]; with DNV type 2 strain) were 200 nM and greater than 5000 nM, respectively.

For `CC(C)(C)c1ccc(-c2coc3cc(OCCN4CCOCC4)ccc3c2=O)cc1` [KIN392], in the experiment with hCMV AD169 strain, the “hCMV as measured by foci (FFU/mL)” value is given as “dose-dependent decreases in hCMV”. In experiment [1], the “viral infection of 293 cells (decrease in foci, dose dependence)” value is recorded as “dose-dependent decreases in viral infection”. The IC50 was 9 nM in experiment [1] and 650 nM with DNV type 2 strain.

Take `CC(=O)N1CCN(CCOc2ccc3c(=O)c(-c4ccc(C(C)(C)C)cc4)coc3c2)CC1` [KIN394]: in the experiment on hCMV AD169 strain, the “hCMV as measured by foci (FFU/mL)” value was “dose-dependent decreases in hCMV”. The “viral infection of 293 cells (decrease in foci, dose dependence)” value in experiment [1] is reported as “dose-dependent decreases in viral infection”. The values for the IC50 (in experiment [1]; in the experiment on DNV type 2 strain) were 70 nM and 940 nM, respectively.

In the case of `CC(C)(C)c1ccc(-c2coc3cc(OCCN4CCN(S(C)(=O)=O)CC4)ccc3c2=O)cc1` [KIN395], the “hCMV as measured by foci (FFU/mL)” value in the experiment on hCMV AD169 strain was “dose-dependent decreases in hCMV”. In addition, in experiment [1], the “viral infection of 293 cells (decrease in foci, dose dependence)” value is listed as “dose-dependent decreases in viral infection” and the IC50 came to 57 nM. In addition, in the experiment with DNV type 2 strain, half-maximal inhibition (IC50) was put at 1970 nM.

Consider `CN1CCN(CCOc2ccc3c(=O)c(-c4ccc(C(C)(C)C)cc4)coc3c2)CC1` [KIN807], for which the IC50 in experiment [1] worked out at 143 nM; in the experiment on DNV type 2 strain it was 130 nM.

As for `CC(=O)N1CCN(CCOc2ccc3c(=O)c(-c4ccc(OC(F)(F)F)cc4)coc3c2)CC1` [KIN814], the IC50 was determined as 62 nM in experiment [1] and 187 nM in the experiment on DNV type 2 strain.

Take `CN1CCN(CCOc2ccc3c(=O)c(-c4ccc(OC(F)(F)F)cc4)coc3c2)CC1` [KIN823]: the IC50 in experiment [1] worked out at 153 nM; with DNV type 2 strain, 371 nM.

Consider `O=c1c(-c2ccc(OC(F)(F)F)cc2)coc2cc(OCCN3CCOCC3)ccc12` [KIN824], for which the values for the IC50 (in experiment [1]; in the experiment with DNV type 2 strain) were 76 nM and 217 nM, respectively.

With `CS(=O)(=O)N1CCN(CCOc2ccc3c(=O)c(-c4ccc(OC(F)(F)F)cc4)coc3c2)CC1` [KIN826], the IC50 in experiment [1] was 14 nM; in the experiment with DNV type 2 strain it was 196 nM.

Regarding `CC(=O)N1CCN(CCOc2ccc3c(=O)c(-c4ccc(Br)cc4)coc3c2)CC1` [KIN844], the values for the concentration for half-maximal inhibition (IC50) (in experiment [1]; in the experiment with DNV type 2 strain) were 2 nM and 316 nM, respectively.

In the case of `CS(=O)(=O)N1CCN(CCOc2ccc3c(=O)c(-c4ccc(Br)cc4)coc3c2)CC1` [KIN848], the IC50 in experiment [1] came to 4 nM; in the experiment with DNV type 2 strain, 258 nM.

Take `CS(=O)(=O)Oc1ccc2c(=O)c(-c3ccc(OCC4CCCOC4)cc3)coc2c1` (centres unmarked) [KIN850]: the figures for the IC50 (in experiment [1]; with DNV type 2 strain) were 2 nM and 1350 nM, respectively.

On to `CC(C)(C)c1ccc(-c2coc3cc(OCCO)ccc3c2=O)cc1` [KIN851], for which the values for the IC50 (in experiment [1]; in the experiment with DNV type 2 strain) were 417 nM and 1190 nM, respectively.

Turning to `CN(c1ccc2c(=O)c(-c3ccc(OCC(F)(F)F)cc3)coc2c1)S(C)(=O)=O` [KIN857], the IC50 in experiment [1] amounted to 65 nM; in the experiment with DNV type 2 strain, 182 nM.

Take `CNCCOc1ccc2c(=O)c(-c3ccc(C(C)(C)C)cc3)coc2c1` [KIN861]: the IC50 is 405 nM in experiment [1] and greater than 5000 nM in the experiment on DNV type 2 strain.

`CN(c1ccc2c(=O)c(-c3ccc(OCC4CC4)cc3)coc2c1)S(C)(=O)=O` [KIN865]: the IC50 stood at 234 nM in experiment [1] and 176 nM in the experiment with DNV type 2 strain.

For `CCN(c1ccc2c(=O)c(-c3ccc(C(C)(C)C)cc3)coc2c1)S(C)(=O)=O` [KIN866], the half-inhibitory concentration (IC50) in experiment [1] stood at 27 nM; in the experiment with DNV type 2 strain, 507 nM.

As to `CN(c1ccc2c(=O)c(-c3ccc(OCC(C)(C)C)cc3)coc2c1)S(C)(=O)=O` [KIN867], the figures for the IC50 (in experiment [1]; in the experiment with DNV type 2 strain) were 7 nM and 304 nM, respectively.

On to `CN(c1ccc2c(=O)c(-c3ccc(OCCC(C)(C)C)cc3)coc2c1)S(C)(=O)=O` [KIN882], for which the IC50 in experiment [1] is 30 nM; in the experiment with DNV type 2 strain, 216 nM.
